Source: patent publication EP0348713A1, “(R,S)-3-(4-phenyl-1-piperazinyl)-1,2-propanediol salts” (DOTT. FORMENTI S.P.A. INDUSTRIA CHIMICA E FARMACEUTICA, priority 1988, dated 1990)
Where a name gives a salt, the structure may show the parent alone.

Test: colour stability in pharmaceutical formulations (undesired colors due to degradation products)
Type: physicochemical
Conditions: particularly suppositories
Description: Said colors, due to degradation products, are evidenced also when using the hydrochloride, whereas they are completely removed when a salt according to the invention is used.

undesired colors occuring in the long run: evidenced
Compound: OCC(O)CN1CCN(c2ccccc2)CC1 (stereo not shown) [hydrochloride]
